Assay results: PMC13288645, “A cryopreserved and in vivo-in vitro validated human induced pluripotent stem cell blood-brain barrier model for reliable neurotoxicity assessment” (NAM journal, 2025)
Where “and” joins values, the source holds several entries; their conditions need not be identical. Identical values can stand only once.

Assays:
[1] = tested on: BBB; settings: cited from earlier work; for In vivo human rate constant for compound transfer from blood across the BBB into brain (K1): human clinical PET, ref Ghazanfari et al. 2024, Le Roux et al. 2019
[2] = in vitro; settings: human
Excerpt: All human iPSC-derived blood-brain barrier cells (Brain Microvascular Endothelial Cells (BMECs), Astrocytes and Pericytes (AP)), media (BMEC maintenance medium and AP medium), and media supplements (plating supplement 500X) have been purchased from Fujifilm Cellular Dynamics Inc. (FCDI, Madison, WI, US, catalogue: R1241). The respective certificates of analysis, including cell characterization data, can be accessed in Supplementary Data File 1. All cells were derived from the same proprietary donor. […] All additional experiments included 96-transwell® membranes only. […] BMEC maintenance medium contained only 1 % P/S without supplements. Unless stated differently, transwell® compartment volumes were used as recommended by Corning including 75 µL apically and 235 µL basolaterally for 96-transwells® as well as 300 µL apically and 1000 µL basolaterally for 24-transwells®.
On day −2, 24-transwells® were coated apically with Collagen IV-Fibronectin coating solution and stored overnight at 4 °C (Fig. 1A). In contrast, 96-transwells® were first flipped upside down, and coated with 50 µL Fibronectin-Collagen IV solution on the basolateral side for 4 h at 37 °C and 5 % CO2 and stored overnight at 4 °C (Fig. 1B). On day −1, 24-transwells® were flipped upside down and coated with 100 µL of a 0.1 % Gelatin solution for 0.5 h at room temperature (RT) before replacement with 100 µL of the AP seeding solution containing 1.1 × 10^6 astrocytes/mL and 2.2 × 10^6 pericytes/mL in AP plating medium. After seeding, cells were incubated to attach for 4 h at 37 °C and 5 % CO2 and then flipped back to normal orientation. […] In both cases, Collagen IV-Fibronectin coating solution was replaced with AP plating medium. […] Here, cells were incubated to attach for 4 h at 37 °C and 5 % CO2 before flipping the transwells® slowly back to normal orientation. To inspect the cell layers for obvious leakages or cell detachment, blank transwell® filters and fully assembled models were observed under a Zeiss Primovert microscope (Carl Zeiss Microscopy GmbH, Jena, Germany) (Supplementary Figure 1). On day 1, BMEC plating medium was replaced by BMEC maintenance medium. After 24 h at 37 °C and 5 % CO2 barrier integrity was evaluated to consider only highly restrictive BBB models for pharmaceutical permeability testing.
After 60 min at 37 °C, 5 % CO2 and 100 rpm shaking on an orbital shaker, 50 µL were sampled from the donor and acceptor (containing APs) compartment. Following a transfer to 96-well plates, samples were diluted 1:1 with 50 µL of DPBS.
With cac being the analyte concentration in the acceptor compartment (µM), t the duration of the incubation (s, here 3 600 s), A the surface area of the respective transwell® membrane (cm^2), Vac the volume of the acceptor compartment (mL) and cdc the applied concentration in the donor compartment (µM). Papp was reported as the average of triplicate 24-transwell® models and six 96-transwell® model replicates.
Additional compound data, including final solvent concentrations and physicochemical properties, were summarized in Supplementary Table 1. After 60 min at 37 °C, 5 % CO2 and 100 rpm shaking on an orbital shaker, 50 µL were sampled from the acceptor and donor compartments of quadruplicate BBB models as well as cell-free controls.
Then, all samples were subject to protein precipitation with acetonitrile:methanol 50:50 (v/v). After centrifugation for 10 min at 10 000 × g, supernatants were transferred to new vials and subsequently evaporated to dryness. […] Derivatization was executed in a ThermoMixer C (Eppendorf, Hamburg, Germany) at 65 °C and 600 rpm for 15 min. After evaporating samples to dryness again, final reconstitution was performed as described above.

[3] = tested on: hiPSC-derived blood-brain barrier model; settings: human
[4] = tested on: hiPSC-derived blood-brain barrier model; assay: Bioavailable radioactivity of [benzyl-14C]-Deltamethrin in the transwell media by liquid scintillation counting; settings: 1h, per replicate, listed as [benzyl-14C]-Deltamethrin
[5] = tested on: BBB; assay: Prediction of human in vivo K1 from in vitro Papp with the linear model
[6] = tested on: rats; settings: oral dosing, ref Amaraneni et al., 2016, Kim et al., 2008, 2007; cited from earlier work
[7] = tested on: hiPSC-derived BBB; parameters: method as in Le Roux et al., 2019; settings: high in vitro permeability not confirmed by this study; ref Le Roux et al., 2019; cited from earlier work
[8] = source not stated; cited from earlier work
[9] = In vitro hiPSC-derived blood-brain barrier model apparent permeability (Papp)
[10] = male, in vitro apparent permeability Papp
[11] = male, in vitro apparent permeability Papp, 96-transwell hiPSC-derived BBB, 60 min, 5 µM (17β-Estradiol 10 µM, Deltamethrin 3 µM)

Structure (SMILES)	In vivo human rate constant for compound transfer from blood across the BBB into brain (K1) [1] [mL min^-1 cm^-3]	Papp at 60 min [2, 9] [×10⁻⁶ cm/s]	Papp at 60 min [2, 10] [×10⁻⁶ cm/s]	Papp at 60 min ([2]; male) [×10⁻⁶ cm/s]	Papp at 60 min [2, 11] [×10⁻⁶ cm/s]	LogP [8]	further results
C[C@]12CC[C@@H]3c4ccc(O)cc4CC[C@H]3[C@@H]1CC[C@@H]2O [17β-Estradiol]	0.24	16.9	> 15	–	–	–	human in vivo permeability K1 (elevated) ([1]; human, ref Delforge et al., 1995, Le Roux et al., 2019, Zubieta et al., 2000): > 0.1 mL cm^-3 min^-1
CC1(C)[C@H](C(=O)O[C@H](C#N)c2cccc(Oc3ccccc3)c2)[C@@H]1C=C(Br)Br [Deltamethrin]	–	–	0.979	–	–	–	Bioavailable [benzyl-14C]-Deltamethrin [3]: 786.44 Bq; Radioactivity Sample apical ([4]; BBB model, acceptor compartment): 1.40 Bq and 1.53 Bq and 1.70 Bq and 2.08 Bq; Radioactivity Sample basolateral ([4]; BBB model, donor compartment): 737.12 Bq and 789.28 Bq and 793.66 Bq and 818.98 Bq; Radioactivity Blank apical ([4]; cell-free control transwell with compound, acceptor compartment): 3.00 Bq and 3.65 Bq and 3.95 Bq and 2.93 Bq; Radioactivity Blank basolateral ([4]; cell-free control transwell with compound, donor compartment): 762.65 Bq and 864.27 Bq and 830.94 Bq and 846.43 Bq; predicted in vivo K1 ([5]; after insertion of Papp into the linear model): −0.099 mL cm^-3 min^-1; Prediction of K1 ([5]; human in vivo K1 predicted from in vitro Papp with the linear model): -0.099 mL min^-1 cm^-3; brain entry and neurotoxic effects in rats [6]: entered the brain and exhibited neurotoxic effects only after 10 mg/kg oral dosing
C#Cc1cccc(Nc2ncnc3cc(OCCOC)c(OCCOC)cc23)c1 [Erlotinib]	0.02	–	–	12.1	< 15	–	in vitro permeability Papp in previous hiPSC-derived BBB results [7]: > 15 × 10^–6 cm/s
CCOC(=O)c1ncn2c1CN(C)C(=O)c1cc(F)ccc1-2 [Flumazenil]	–	–	–	–	–	1.9	–
CN(C)C(=O)C(CCN1CCC(O)(c2ccc(Cl)cc2)CC1)(c1ccccc1)c1ccccc1 [Loperamide]	0.002	–	–	6.75	< 15	5.13	human in vivo K1 (clinically shown to enter the human brain relatively poorly) ([1]; human, ref Bauer et al., 2015, Traxl et al.): < 0.05 mL cm^-3 min^-1
CCN1CCC[C@H]1CNC(=O)c1c(O)c(Cl)cc(Cl)c1OC [Raclopride]	0.09	16.8	> 15	–	–	–	–
